Measured values: patent publication US8575097B2, “Exendin variant and conjugate thereof” (Pegbio Co., Ltd., priority 2009, dated 2013)

Assay: Effect on body weight of guinea pigs (Example 23)
Type: in vivo, guinea pig
Conditions: 4 days after two successive dosing, 100 μg/kg s.c. (albumin 80 mg/kg), compared with saline group
Text: 44 male healthy guinea pigs were provided, and the body weight of each guinea pig was about 300 g.

## chicken ovalbumin [chicken ovalbumin, albumin group in the guinea pig allergy test]
  decrease of body weight: did not decrease
